Experimental data published in patent EP0060179A1, “Pharmaceutical compositions having anorectic activity” (SANOFI S.A., priority 1981, dated 1982).
Read-outs that look alike come from different tables or passages of the source. Marks after values point to notes of the source that are not given here.

Experiments:
[1] = Acute toxicity (DL50) in the rat; conditions: in vivo
Text: (§1) Dans le tableau I sont reportés, pour cinq composés représentatifs utiles comme ingrédients actifs dans les compositions selon l'invention: • - la toxicité aiguë, exprimée comme DL50 chez le rat par voie orale ou par voie intrapéritonéale (donnée A); • - l'activité anorexigène, exprimée comme dose orale ou intrapéritonéale inhibant de 50% la prise de nourriture (DE50, donnée B); • - le rapport entre la toxicité aiguë et l'activité anorexigène qui exprime l'index thérapeutique lié à la toxicité aiguë (donnée A/B).

[2] = system: prise de nourriture chez le rat; experiment: Anorectic activity, food intake method in the rat; format: in vivo; conditions: for A/B (index thérapeutique lié à la toxicité aiguë): DL50/DE50; for ED50: 1 h, rat, 30 minutes before food, food consumed in first hour, read-out: B DE50 (dose inhibant de 50% la prise de nourriture)
Experimental: L'activité anorexigène a été évaluée par la méthode de la prise de nourriture chez le rat. On a utilisé des rats femelles de 200 g entrainés pendant 10 jours à manger durant une période de 4 heures et sélectionnés au huitième jour. Au bout du dixième jour, les animaux randomisés ont été divisés en un "groupe contrôle", traité par le seul véhicule, et en plusieurs "groupes traités". Le traitement a été effectué par voie orale et/ou intrapéritonéale 30 minutes avant la présentation de la nourriture et, ensuite, on a mesuré la quantité de nourriture consommée au cours de la première heure.
as §1

[3] = system: taux cérébraux de sérotonine; experiment: Brain serotonin levels after administration (Curzon and Green method); format: in vivo
Text: En particulier, les composés utilisés comme principes actifs des compositions pharmaceutiques de la présente invention, in vivo, ne provoquent pas de déplétion de sérotonine au niveau central. Le tableau II ci-dessous résume les taux cérébraux de sérotonine, en pourcentage par rapport aux contrôles, après administration orale ou intrapéritonéale de quatre ingrédients actifs des compositions pharmaceutiques de la présente invention. La détermination des taux cérébraux, selon Curzon et Green (Brit. J. Pharmacol. 39, 653, 1970), a été effectuée une heure et/ou deux heures après l'administration. La fenfluramine a été utilisée comme produit de référence.

[4] = target: récepteurs post-synaptiques de la sérotonine; experiment: 3H-serotonin binding to rat cortex membranes (Peroutka and Snyder method); conditions: fixed concentration of 3H-serotonin
Text: L'affinité des composés de la présente invention pour les récepteurs post-synaptiques de la' sérotonine a été déterminée selon la méthode de Peroutka et Snyder (Molec. Pharmacol. 1979, 16, 687-699) qui consiste à incuber des membranes de cortex de rat avec une concentration fixée de ^3H-sérotonine en présence de différentes concentrations de produit. Le tableau III montre la concentration molare de trois ingrédients actifs représentatifs de la présente invention qui donne une inhibition de 50% du binding spécifique au récepteur sérotoninergique (IC50), à savoir la mesure de la capacité du produit d'intéragir avec la ^3H-sérotonine dans le binding à son récepteur. La fenfluramine et la 3-(3-trifluorométhylphényl)-1-propyl-1,2,5,6-tétrahydropyridine (Composé A), décrite par le brevet allemand 2 904 826, ont été utilisées comme composés de référence.

Compound | LD50 ([1]; ip) | LD50 ([1]; po, os) | A/B (index thérapeutique lié à la toxicité aiguë) ([2]; i.p.) | ED50 ([2]; ip, i.p.) | A/B (index thérapeutique lié à la toxicité aiguë) ([2]; os) | ED50 ([2]; po, os) | taux cérébraux de sérotonine % par rapport aux contrôles ([3]; i.p., 15 mg/kg, 1 h.) | taux cérébraux de sérotonine % par rapport aux contrôles ([3]; i.p., 15 mg/kg, 2 h.) | taux cérébraux de sérotonine % par rapport aux contrôles ([3]; i.p., 7,5 mg/kg, 2 h.) | taux cérébraux de sérotonine % par rapport aux contrôles ([3]; i.p., 30 mg/kg, 2 h.) | taux cérébraux de sérotonine % par rapport aux contrôles ([3]; os, 15 mg/kg, 2 h.) | taux cérébraux de sérotonine % par rapport aux contrôles ([3]; os, 7,5 mg/kg, 2 h.) | taux cérébraux de sérotonine (result in words) ([3]; at anorectic doses) | taux cérébraux de sérotonine % par rapport aux contrôles ([3]; i.p., 5,0 mg/kg, 1 h.) | taux cérébraux de sérotonine % par rapport aux contrôles ([3]; i.p., 7,5 mg/kg, 1 h.) | IC50 [4]
FC(F)(F)c1cccc(C2=CCNCC2)c1 [CM 57235, chlorhydratede 4-(3-triflüorométhylphényl)-1,2,3,6-tétrahydropyridine] | 94.6 mg/kg | 346 mg/kg | 11,2 | 8.4 mg/kg | 22 | 15.7 mg/kg | 106% | 102% | 112,0% | – | – | – | – | – | – | –
FC(F)(F)c1cccc(C2=CCN(Cc3ccccc3)CC2)c1 [CM 57451, chlorhydratede 4-(3-trifluorométhylphényl)-1-benzyl-1,2,3,6-tétrahydropyridine] | 220 mg/kg | 600 mg/kg | 14,6 | 15 mg/kg | 33,3 | 18 mg/kg | 121,2% | 112,0% | – | 119,0% | – | – | – | – | – | –
CCCN1CC=C(c2cccc(C(F)(F)F)c2)CC1 [CM 57545, chlorhydratede 4-(3-trifluorométhylphényl)-1-propyl-1,2,3,6-tétrahydropyridine] | 124 mg/kg | 178 mg/kg | 17,7 | 7 mg/kg | 22,2 | 8 mg/kg | – | 112% | 103% | – | – | – | – | – | – | –
CN1CC=C(c2cccc(C(F)(F)F)c2)CC1 [CM 57548, chlorhydratede 4-(3-trifluorométhylphényl)-1-méthyl-1,2,3,6-tétrahydropyridine] | 186 mg/kg | – | 15,2 | 12.2 mg/kg | – | – | – | – | – | – | – | – | – | – | – | –
CCCCCN1CC=C(c2cccc(C(F)(F)F)c2)CC1 [CM 57756, chlorhydratede 4-(3-trifluorométhylphényl)-1-n-pentyl-1,2,3,6-tétrahydropyridine] | – | 311 mg/kg | – | – | 35,4 | 8.8 mg/kg | – | – | – | – | 125 * % | 138 ** % | – | – | – | –
CCNC(C)Cc1cccc(C(F)(F)F)c1 (stereo not drawn) [fenfluramine, reference compound] | 85.6 mg/kg | 100 mg/kg | 15,8 | 5.4 mg/kg | 25,1 | 4 mg/kg | – | – | 53,1 ** % | – | – | – | réduction importante de sérotonine cérébrale | 82,9 * % | 81,6 * % | > 10 µM
